Measurements as given in publication doi:10.1101/2023.10.21.563410v1 (biorxiv, 2023).
One block for each compound: values may come before it.

Legend:
OATP1B3 [1] = molecular target: T1, OATP1B3 (Homo sapiens, UniProt Q9NPD5); assay: fluorimetric uptake of fluorescein-methotrexate; type: cell-based; conditions: racemic compound
T1 sequence (Q9NPD5 1-702): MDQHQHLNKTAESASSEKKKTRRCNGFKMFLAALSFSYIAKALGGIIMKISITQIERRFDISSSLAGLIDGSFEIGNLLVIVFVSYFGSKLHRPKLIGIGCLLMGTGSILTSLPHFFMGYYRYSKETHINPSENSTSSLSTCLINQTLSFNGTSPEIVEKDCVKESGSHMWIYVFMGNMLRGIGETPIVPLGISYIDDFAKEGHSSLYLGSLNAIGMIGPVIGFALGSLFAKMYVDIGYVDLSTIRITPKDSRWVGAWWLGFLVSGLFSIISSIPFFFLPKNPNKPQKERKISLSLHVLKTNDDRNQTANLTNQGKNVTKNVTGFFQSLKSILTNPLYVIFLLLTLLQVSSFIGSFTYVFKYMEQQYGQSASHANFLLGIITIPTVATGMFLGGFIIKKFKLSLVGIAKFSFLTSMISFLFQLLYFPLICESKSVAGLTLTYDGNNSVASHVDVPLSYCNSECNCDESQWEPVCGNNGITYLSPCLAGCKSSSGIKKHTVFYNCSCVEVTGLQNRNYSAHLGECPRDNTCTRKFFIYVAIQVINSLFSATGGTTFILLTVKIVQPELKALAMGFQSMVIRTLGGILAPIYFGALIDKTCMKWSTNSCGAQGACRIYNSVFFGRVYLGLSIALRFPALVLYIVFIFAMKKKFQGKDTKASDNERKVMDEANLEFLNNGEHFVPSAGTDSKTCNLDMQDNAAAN

OATP1B1 [2] = molecular target: T2, OATP1B1 (Homo sapiens, UniProt Q9Y6L6); assay: fluorimetric uptake of fluorescein-methotrexate; type: cell-based; conditions: racemic compound
T2 sequence (Q9Y6L6 1-691): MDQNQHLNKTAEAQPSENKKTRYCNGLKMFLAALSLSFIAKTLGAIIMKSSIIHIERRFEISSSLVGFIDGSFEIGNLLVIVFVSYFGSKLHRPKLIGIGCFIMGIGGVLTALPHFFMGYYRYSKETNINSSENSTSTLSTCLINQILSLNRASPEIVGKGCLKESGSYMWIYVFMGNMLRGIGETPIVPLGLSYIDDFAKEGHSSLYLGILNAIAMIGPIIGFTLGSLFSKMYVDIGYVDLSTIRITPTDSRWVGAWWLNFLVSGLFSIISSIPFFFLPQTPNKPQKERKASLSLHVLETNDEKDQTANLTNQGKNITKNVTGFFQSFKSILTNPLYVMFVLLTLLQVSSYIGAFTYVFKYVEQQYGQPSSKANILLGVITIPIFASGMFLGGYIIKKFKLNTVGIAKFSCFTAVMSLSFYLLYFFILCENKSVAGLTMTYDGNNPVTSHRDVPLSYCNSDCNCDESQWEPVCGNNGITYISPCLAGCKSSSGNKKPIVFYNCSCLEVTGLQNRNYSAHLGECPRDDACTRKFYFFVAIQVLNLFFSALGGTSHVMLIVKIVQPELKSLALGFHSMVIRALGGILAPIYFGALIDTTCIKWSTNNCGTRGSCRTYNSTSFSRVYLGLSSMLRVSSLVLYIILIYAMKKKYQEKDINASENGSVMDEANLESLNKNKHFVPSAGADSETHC

BSEP = BSEP (Homo sapiens, UniProt O95342); assay: uptake of 3H-taurocholic acid in membrane vesicles, scintillation counting; type: biochemical; conditions: read-out: % of control activity at 10 μM
MRP2 = MRP2 (Homo sapiens, UniProt Q92887); assay: fluorimetric uptake of […]; type: cell-based
hPXR = molecular target: T3, hPXR (Homo sapiens, UniProt O75469); assay: luciferase reporter gene assay; type: cell-based
T3 sequence (O75469 1-434): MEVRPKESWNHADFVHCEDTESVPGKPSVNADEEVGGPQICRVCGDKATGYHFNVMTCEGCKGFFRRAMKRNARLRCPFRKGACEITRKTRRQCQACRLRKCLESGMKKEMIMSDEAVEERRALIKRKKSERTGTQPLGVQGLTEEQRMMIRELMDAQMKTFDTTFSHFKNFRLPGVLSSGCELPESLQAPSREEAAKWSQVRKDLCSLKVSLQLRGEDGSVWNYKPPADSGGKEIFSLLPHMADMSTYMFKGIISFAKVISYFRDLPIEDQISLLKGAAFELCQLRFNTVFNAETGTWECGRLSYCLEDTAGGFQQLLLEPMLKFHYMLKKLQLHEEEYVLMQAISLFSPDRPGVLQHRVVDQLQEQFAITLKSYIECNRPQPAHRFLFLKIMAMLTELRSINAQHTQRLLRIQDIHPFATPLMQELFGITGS

OATP1B1 [3] = molecular target: T2, OATP1B1; assay: fluorimetric uptake of fluorescein-methotrexate; type: cell-based
OATP1B3 [4] = molecular target: T1, OATP1B3; assay: fluorimetric uptake of fluorescein-methotrexate; type: cell-based

Sequence of MRP2 (Q92887 whole entry): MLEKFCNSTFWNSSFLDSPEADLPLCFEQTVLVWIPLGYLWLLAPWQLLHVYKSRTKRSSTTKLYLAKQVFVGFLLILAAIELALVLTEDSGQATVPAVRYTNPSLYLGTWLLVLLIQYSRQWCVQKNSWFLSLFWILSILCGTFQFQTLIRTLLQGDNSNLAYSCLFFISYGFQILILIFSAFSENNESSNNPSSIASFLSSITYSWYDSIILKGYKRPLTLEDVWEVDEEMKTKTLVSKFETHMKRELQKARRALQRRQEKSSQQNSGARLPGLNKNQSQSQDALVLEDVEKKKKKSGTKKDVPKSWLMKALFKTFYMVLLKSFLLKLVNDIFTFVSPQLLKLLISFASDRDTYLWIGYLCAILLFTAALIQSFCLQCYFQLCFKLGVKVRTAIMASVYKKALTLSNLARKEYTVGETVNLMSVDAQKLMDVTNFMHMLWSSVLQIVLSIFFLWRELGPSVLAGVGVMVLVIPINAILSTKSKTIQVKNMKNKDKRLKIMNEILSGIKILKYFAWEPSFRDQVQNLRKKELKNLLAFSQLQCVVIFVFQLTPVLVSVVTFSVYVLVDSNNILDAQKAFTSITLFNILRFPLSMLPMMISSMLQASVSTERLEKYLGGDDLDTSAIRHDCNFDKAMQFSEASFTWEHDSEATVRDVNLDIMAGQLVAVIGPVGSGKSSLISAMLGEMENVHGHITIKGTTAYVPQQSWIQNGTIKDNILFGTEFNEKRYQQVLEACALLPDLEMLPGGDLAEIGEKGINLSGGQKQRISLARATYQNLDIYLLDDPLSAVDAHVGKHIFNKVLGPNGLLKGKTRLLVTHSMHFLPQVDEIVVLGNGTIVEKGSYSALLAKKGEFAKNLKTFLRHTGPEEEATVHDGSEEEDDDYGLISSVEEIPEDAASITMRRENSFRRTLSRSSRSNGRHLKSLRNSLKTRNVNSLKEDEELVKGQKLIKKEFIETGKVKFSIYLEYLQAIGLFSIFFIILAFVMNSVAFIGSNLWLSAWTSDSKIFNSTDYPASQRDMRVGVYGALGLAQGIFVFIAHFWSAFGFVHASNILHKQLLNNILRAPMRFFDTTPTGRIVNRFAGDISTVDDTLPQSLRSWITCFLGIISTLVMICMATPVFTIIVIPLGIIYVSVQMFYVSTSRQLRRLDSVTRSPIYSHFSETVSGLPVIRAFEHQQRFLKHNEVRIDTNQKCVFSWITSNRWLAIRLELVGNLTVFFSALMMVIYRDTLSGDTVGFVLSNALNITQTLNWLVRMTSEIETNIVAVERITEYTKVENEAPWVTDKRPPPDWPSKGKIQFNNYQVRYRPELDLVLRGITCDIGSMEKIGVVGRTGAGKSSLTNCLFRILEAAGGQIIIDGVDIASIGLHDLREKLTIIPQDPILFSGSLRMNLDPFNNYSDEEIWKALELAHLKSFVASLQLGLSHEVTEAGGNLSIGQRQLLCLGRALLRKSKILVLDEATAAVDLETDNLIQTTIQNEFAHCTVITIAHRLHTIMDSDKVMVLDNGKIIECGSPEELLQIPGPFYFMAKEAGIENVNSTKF
Sequence of BSEP (O95342 whole entry): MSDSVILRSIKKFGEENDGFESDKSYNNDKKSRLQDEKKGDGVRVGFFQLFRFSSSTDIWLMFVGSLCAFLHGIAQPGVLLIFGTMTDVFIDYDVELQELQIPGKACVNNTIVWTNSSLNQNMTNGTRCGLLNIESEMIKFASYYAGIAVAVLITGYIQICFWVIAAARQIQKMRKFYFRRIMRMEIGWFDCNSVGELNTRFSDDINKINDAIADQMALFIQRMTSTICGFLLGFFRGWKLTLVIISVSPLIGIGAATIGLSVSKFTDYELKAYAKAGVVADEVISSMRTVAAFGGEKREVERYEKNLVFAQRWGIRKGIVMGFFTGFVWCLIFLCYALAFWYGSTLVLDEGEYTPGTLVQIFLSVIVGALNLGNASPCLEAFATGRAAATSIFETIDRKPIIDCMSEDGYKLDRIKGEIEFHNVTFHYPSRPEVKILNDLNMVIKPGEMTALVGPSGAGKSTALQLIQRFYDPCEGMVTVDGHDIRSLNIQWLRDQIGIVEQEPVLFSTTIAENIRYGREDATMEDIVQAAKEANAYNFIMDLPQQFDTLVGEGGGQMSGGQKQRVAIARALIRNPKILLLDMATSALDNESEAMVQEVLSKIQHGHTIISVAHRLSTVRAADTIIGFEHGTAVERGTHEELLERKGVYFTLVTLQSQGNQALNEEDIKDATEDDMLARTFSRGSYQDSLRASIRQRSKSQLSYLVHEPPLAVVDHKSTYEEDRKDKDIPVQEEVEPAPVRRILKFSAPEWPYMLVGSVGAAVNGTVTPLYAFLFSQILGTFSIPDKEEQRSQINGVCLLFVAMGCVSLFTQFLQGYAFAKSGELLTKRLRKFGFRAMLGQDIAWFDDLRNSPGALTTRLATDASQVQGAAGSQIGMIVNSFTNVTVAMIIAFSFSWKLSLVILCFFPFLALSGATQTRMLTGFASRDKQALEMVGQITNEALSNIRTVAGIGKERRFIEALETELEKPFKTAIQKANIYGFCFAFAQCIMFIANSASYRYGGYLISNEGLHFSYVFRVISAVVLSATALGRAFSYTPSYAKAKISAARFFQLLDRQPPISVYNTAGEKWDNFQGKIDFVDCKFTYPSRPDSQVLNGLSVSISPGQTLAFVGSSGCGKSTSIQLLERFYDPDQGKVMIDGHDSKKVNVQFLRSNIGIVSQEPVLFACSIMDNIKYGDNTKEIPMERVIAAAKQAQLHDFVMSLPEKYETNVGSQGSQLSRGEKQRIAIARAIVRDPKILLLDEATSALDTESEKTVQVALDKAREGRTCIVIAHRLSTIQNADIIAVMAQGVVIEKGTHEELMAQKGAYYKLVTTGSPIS

Structure (SMILES): C#CCC(O)(c1ccncc1)c1cc2ccccc2n1S(=O)(=O)c1ccccc1 (racemic) [FKK6, 1-(1-(phenylsulfonyl)-1H-indol-2-yl)-(1-pyridin-4-yl)-but-3-yn-1-ol]
% of control activity at 10 μM (OATP1B3 [1]): 36% | % of control activity at 10 μM (OATP1B1 [2]): 34% | remaining activity at 10 µM (BSEP): 44%

Structure (SMILES): CN(C)C(=O)CCSC(SCCC(=O)O)c1cccc(/C=C/c2ccc3ccc(Cl)cc3n2)c1 (centres unmarked) [MK571]
IC50 (MRP2): 22 µM

Structure (SMILES): C#CCC(O)(c1cc[n+]([O-])cc1)c1cc2ccccc2n1S(=O)(=O)c1ccccc1 (centres unmarked) [compound 6, 4-(1-hydroxy-1-(1-(phenylsulfonyl)-1H-indol-2-yl)but-3-yn-1-yl)pyridine 1-oxide]
EC50 (hPXR): 7.8 µM

Second part, the compound after the results:

EC50 (hPXR): 5.1 µM
Structure (SMILES): C#CCC(O)(c1ccncc1)c1cc2ccccc2n1S(=O)(=O)c1ccc(O)cc1 (centres unmarked) [compound 9, 4-((2-(1-hydroxy-1-(pyridin-4-yl)but-3-yn-1-yl)-1H-indol-1-yl)sulfonyl)phenol]

IC50 (OATP1B1 [3]): 3.4 µM | IC50 (OATP1B3 [4]): 3.9 µM
Structure (SMILES): CO[C@H]1/C=C/O[C@@]2(C)Oc3c(C)c(O)c4c(O)c(c(/C=N/N5CCN(C)CC5)c(O)c4c3C2=O)NC(=O)/C(C)=C\C=C\[C@H](C)[C@H](O)[C@@H](C)[C@@H](O)[C@@H](C)[C@H](OC(C)=O)[C@@H]1C [rifampicin]
